Data published in article PMC2994877, “A Full Pharmacological Analysis of the Three Turkey β-Adrenoceptors and Comparison with the Human β-Adrenoceptors” (PLoS ONE, 2010).
Where two headings read alike, the source gives them in different places.

What was measured:
[1] = target: T1, turkey β4C-adrenoceptor (tβ4C) (Meleagris gallopavo, UniProt P43141); experiment: cell-based; format: binding
T1 construct: expressed in transfected cells

[2] = target: T2, turkey β3C-adrenoceptor (tβ3C) (Meleagris gallopavo, UniProt A0A803YLI8); experiment: 3H-CGP12177 whole cell binding, CHO tβ3C cells
T2 sequence (A0A803YLI8 entry or part of it): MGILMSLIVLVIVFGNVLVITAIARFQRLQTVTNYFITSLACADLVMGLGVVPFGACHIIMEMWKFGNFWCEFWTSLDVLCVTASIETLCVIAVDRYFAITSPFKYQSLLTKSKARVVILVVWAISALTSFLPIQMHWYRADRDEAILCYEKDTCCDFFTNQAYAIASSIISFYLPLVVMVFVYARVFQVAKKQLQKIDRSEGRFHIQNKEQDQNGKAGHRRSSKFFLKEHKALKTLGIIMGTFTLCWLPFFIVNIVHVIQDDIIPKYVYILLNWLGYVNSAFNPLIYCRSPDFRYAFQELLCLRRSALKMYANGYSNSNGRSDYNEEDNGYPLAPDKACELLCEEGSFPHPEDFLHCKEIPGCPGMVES

Human β3-adrenoceptor = conditions: Human β3, given for comparison; ref 25 and 30; cited from earlier work
Human β2-adrenoceptor = target: Human β2-adrenoceptor; set-up: method as in PMID 15655528, PMID 20590599; conditions: Human β2, given for comparison; ref 25 and 30; cited from earlier work
Human β1-adrenoceptor = target: Human β1-adrenoceptor; set-up: method as in PMID 15655528, PMID 20590599; conditions: Human β1, given for comparison; ref 25 and 30; cited from earlier work
[3] = target: T2, turkey β3C-adrenoceptor (tβ3C); experiment: CRE-SPAP production, CHO tβ3C cells; format: cell-based; conditions: for Kd: CHO tβ3C cells
[4] = target: T1, turkey β4C-adrenoceptor (tβ4C); experiment: cell-based; format: cell-based
[5] = competition with 3H-CGP12177, whole cells, CHO tβ4C, given as log KD, mean ± s.e.m., read-out: Log KD (converted)
[6] = competition with 3H-CGP12177, whole cells, CHO tβ3C, given as log KD, mean ± s.e.m., read-out: Log KD (converted)
[7] = competition with 3H-CGP12177, whole cells, CHO tβ4C, given as log KD, mean ± s.e.m.
[8] = competition with 3H-CGP12177, whole cells, CHO tβ3C, given as log KD, mean ± s.e.m.

T1 sequence (P43141 whole entry): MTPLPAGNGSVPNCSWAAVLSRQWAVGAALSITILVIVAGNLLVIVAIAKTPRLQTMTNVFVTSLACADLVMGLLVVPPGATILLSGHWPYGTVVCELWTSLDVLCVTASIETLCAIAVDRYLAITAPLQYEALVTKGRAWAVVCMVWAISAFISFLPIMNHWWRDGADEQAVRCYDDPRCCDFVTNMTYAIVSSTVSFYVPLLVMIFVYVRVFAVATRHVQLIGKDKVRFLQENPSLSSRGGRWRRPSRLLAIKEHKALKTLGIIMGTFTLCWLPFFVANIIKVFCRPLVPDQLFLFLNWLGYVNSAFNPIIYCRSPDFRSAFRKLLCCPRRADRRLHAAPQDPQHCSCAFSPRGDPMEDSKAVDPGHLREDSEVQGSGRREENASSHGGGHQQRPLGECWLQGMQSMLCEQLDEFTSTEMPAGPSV

CCCC(=O)Nc1ccc(OCC(O)CNC(C)C)c(C(C)=O)c1 (centres unmarked) [Acebutolol]
Kd [1, 5]: 3890 nM | Kd [2, 6]: 4070 nM

C=CCc1ccccc1OCC(O)CNC(C)C (centres unmarked) [Alprenolol]
Log KD (Human β3-adrenoceptor): −6.93 | Kd [1, 5]: 14.1 nM | Kd [2]: 3.63 nM

CC(C)NCC(O)COc1ccc(CC(N)=O)cc1 (centres unmarked) [Atenolol]
Kd [1, 5]: 17400 nM | Kd [2, 6]: 17800 nM

Br.COC(=O)COc1ccc(CC(C)NC[C@H](O)c2cccc(Cl)c2)cc1 (some centres unmarked) [BRL35135A]
Log KD (Human β3-adrenoceptor): −6.73 | Log KD [1, 7]: −6.39±0.03 | Log KD (Human β2-adrenoceptor): −7.38 | Log KD (Human β1-adrenoceptor): −6.08 | Log KD [2, 8]: −7.42±0.06

CC(C)NCC(O)COc1ccc(CCOCC2CC2)cc1 (centres unmarked) [Betaxalol]
Log KD (Human β3-adrenoceptor): −5.97 | Kd [1, 5]: 575 nM

CC(C)NCC(O)COc1ccc(COCCOC(C)C)cc1 (centres unmarked) [Bisoprolol]
Kd [1, 5]: 550 nM | Kd [2, 6]: 2630 nM

CC(C)(Cc1c[nH]c2ccccc12)NCC(O)COc1ccccc1C#N (centres unmarked) [Bucindolol]
Log KD (Human β3-adrenoceptor): −8.04 | Kd [1, 5]: 0.389 nM | Log KD (Human β2-adrenoceptor): −9.99 | Log KD (Human β1-adrenoceptor): −9.31 | Kd [2]: 0.191 nM

Cc1ccc(Cl)c(OCC(O)CNC(C)(C)C)c1 (centres unmarked) [Bupranolol]
Log KD (Human β3-adrenoceptor): −7.04 | Kd [1, 5]: 6.61 nM | Log KD (Human β1-adrenoceptor): −8.51 | Kd [2, 6]: 0.851 nM

COc1ccc(OC)c(C(O)C(C)NC(C)(C)C)c1 (centres unmarked) [Butoxamine]
Log KD (Human β3-adrenoceptor): >−4 | Kd [1, 5]: 12600 nM | Log KD (Human β2-adrenoceptor): −6.23 | Log KD (Human β1-adrenoceptor): −4.85 | Kd [2]: 1020 nM

Cn1cc(C(F)(F)F)nc1-c1ccc(OCC(O)CNCCOc2ccc(O)c(C(N)=O)c2)cc1 (centres unmarked) [CGP20712A]
Kd ([3]; Log KD CGP20712A, vs agonist BRL37344, CRE-SPAP): 3090 nM | Kd ([3]; Log KD CGP20712A, vs agonist CGP12177, CRE-SPAP): 2690 nM | Kd ([3]; Log KD CGP20712A, vs agonist adrenaline, CRE-SPAP): 4570 nM | Kd ([3]; Log KD CGP20712A, vs agonist cimaterol, CRE-SPAP): 3470 nM | Kd ([3]; Log KD CGP20712A, vs agonist clenbuterol, CRE-SPAP): 1780 nM | Kd ([3]; Log KD CGP20712A, vs agonist dobutamine, CRE-SPAP): 7410 nM | Kd ([3]; Log KD CGP20712A, vs agonist fenoterol, CRE-SPAP): 2450 nM | Kd ([3]; Log KD CGP20712A, vs agonist formoterol, CRE-SPAP): 3630 nM | Kd ([3]; Log KD CGP20712A, vs agonist isoprenaline, CRE-SPAP): 3720 nM | Kd ([3]; Log KD CGP20712A, vs agonist noradrenaline, CRE-SPAP): 5250 nM | Kd ([3]; Log KD CGP20712A, vs agonist salbutamol, CRE-SPAP): 3240 nM | Kd ([3]; Log KD CGP20712A, vs agonist salmeterol, CRE-SPAP): 6310 nM | Kd [2]: 3980 nM

C[C@H](Cc1ccc2c(c1)OC(C(=O)[O-])(C(=O)[O-])O2)NC[C@H](O)c1cccc(Cl)c1.[Na+].[Na+] [CL316243]
Log KD (Human β3-adrenoceptor): −5.11 | Log KD [1, 7]: >−4 | Log KD (Human β1-adrenoceptor): >−3 | Log KD [2, 8]: >−4

CC(C)NCC(O)COc1cccc2[nH]c3ccccc3c12 (centres unmarked) [Carazolol]
Log KD (Human β3-adrenoceptor): −8.35 | Kd [1, 5]: 0.0537 nM | Kd [2, 6]: 0.012 nM

COc1ccccc1OCCNCC(O)COc1cccc2[nH]c3ccccc3c12 (centres unmarked) [Carvedilol]
Kd [1, 5]: 0.123 nM

CC(C)NCC(O)c1ccc(N)c(C#N)c1 (centres unmarked) [Cimaterol]
Emax ([3]; read-out: % isop max): 103 ± 2.2% | Log KD (Human β3-adrenoceptor): −5.28 | Log KD (Human β2-adrenoceptor): −7.26 | % isop max ([4]; CRE-SPAP, % of 10 µM isoprenaline maximum, CHO tβ4C cells): 98.2±2.3%

COc1ccc(CCNC[C@H](O)c2ccc(O)cc2)cc1OC [Denopamine]
Log KD (Human β3-adrenoceptor): −5.30 | Kd [1, 5]: 1120 nM | Log KD (Human β2-adrenoceptor): −5.83 | Kd [2, 6]: 2340 nM

COc1ccc(CC(C)NCC(O)c2ccc(O)c(NC=O)c2)cc1 (centres unmarked) [Formoterol]
EC50 [3]: 0.0447 nM | Log KD (Human β3-adrenoceptor): −5.82 | Kd [1]: 20 nM | EC50 [4]: 0.166 nM | Kd [2]: 11 nM

Cc1ccc(OCC(O)C(C)NC(C)C)c2c1CCC2 (centres unmarked) [ICI118551]
Kd ([3]; Log KD ICI118551, vs agonist BRL37344, CRE-SPAP): 0.49 nM | Kd ([3]; Log KD ICI118551, vs agonist CGP12177, CRE-SPAP): 0.316 nM | Kd ([3]; Log KD ICI118551, vs agonist adrenaline, CRE-SPAP): 1.62 nM | Kd ([3]; Log KD ICI118551, vs agonist cimaterol, CRE-SPAP): 0.398 nM | Kd ([3]; Log KD ICI118551, vs agonist clenbuterol, CRE-SPAP): 0.339 nM | Kd ([3]; Log KD ICI118551, vs agonist dobutamine, CRE-SPAP): 1.15 nM | Kd ([3]; Log KD ICI118551, vs agonist fenoterol, CRE-SPAP): 0.457 nM | Kd ([3]; Log KD ICI118551, vs agonist formoterol, CRE-SPAP): 0.513 nM | Kd ([3]; Log KD ICI118551, vs agonist isoprenaline, CRE-SPAP): 2.51 nM | Kd ([3]; Log KD ICI118551, vs agonist noradrenaline, CRE-SPAP): 1.38 nM | Kd ([3]; Log KD ICI118551, vs agonist salbutamol, CRE-SPAP): 0.49 nM | Kd ([3]; Log KD ICI118551, vs agonist salmeterol, CRE-SPAP): 0.617 nM | Kd [2]: 1.17 nM

O=C(O)COc1ccc(OCCNC[C@H](O)COc2ccccc2)cc1 [ICI215001]
Log KD (Human β3-adrenoceptor): −6.63 | Log KD [1, 7]: −6.55±0.06 | Log KD [2, 8]: −5.31±0.09
